According to article PMC4984800, “A first in man, dose-finding study of the mTORC1/mTORC2 inhibitor OSI-027 in patients with advanced solid malignancies” (British Journal of Cancer, 2016):
“Also recorded” adds a separate entry of the source.

Legend:
advanced solid tumours = test: Preliminary antitumour activity (RECIST); type: in vivo, human
Procedure: Assessments by imaging techniques (CT and/or MRI) were performed every 8–12 weeks or earlier if clinically indicated. Descriptive statistics were used to summarise the safety data, including all patients who received at least one dose of OSI-027. All patients who completed the pharmacokinetic sampling were included in the PK analyses, which used descriptive statistics to summarise AUC0–∞, AUC0–t, Cmax, Clast, Tmax, Tlast, %AUC extrapolated, T1/2, clearance (Cl/F) and volume of distribution (Vz/F). Exploratory analysis were planned to correlate pharmacodynamics and pharmacokinetics. Response to treatment was evaluated according to Response Evaluation Criteria in Solid Tumors (RECIST) ([Therasse et al, 2000]).

[1] = tested on: p4EBP1 (Thr37/46) in PBMC; test: Pharmacodynamics in PBMC: p4EBP1 (Thr37/46), mTORC1 effector; type: in vivo, human
Procedure: Drug-mediated inhibition of the mTORC1 and mTORC2 signalling was evaluated through assessing modulation of phospho-4EBP1 and phospho-PRAS40 in PBMC, as well as phospho-4EBP1 and phospho-S6 in tumour biopsies. Blood aliquots were collected prior to start dosing and at prespecified time points during the first course of treatment. Fresh tumour biopsies were obtained from selected patients during the dose escalation stage and from all patients in the expansion cohorts, at baseline and during cycle 1.
Drug-mediated inhibition of mTORC1 and mTORC2 signalling by OSI-027 was assessed by measuring inhibition of their effectors p4EBP1 (Thr37/46) and pPRAS40 (Thr246), respectively, in PBMC. In addition, paired tumour biopsies at screening and during first month of therapy were used to study target modulation.

[2] = preclinical toxicology studies; cited from earlier work
tumour xenograft models = tested on: tumour xenograft models; parameters: method as in Bhagwat et al, 2011; Falcon et al, 2011; conditions: ref Bhagwat et al, 2011, Falcon et al; cited from earlier work
mTORC2 = tested on: mTORC2; parameters: method as in Bhagwat et al, 2011; Falcon et al, 2011; conditions: ref Bhagwat et al, 2011, Falcon et al; cited from earlier work
[3] = metastatic colorectal cancer, S3–10 mg

COc1cccc2cc(-c3nc([C@H]4CC[C@H](C(=O)O)CC4)n4ncnc(N)c34)[nH]c12 [OSI-027]
patients with stable disease at first follow-up radiological assessment (advanced solid tumours; 8–12 weeks): 29.7% | RECIST responses (complete or partial) (advanced solid tumours; all patients): No RECIST responses were recorded; also recorded: No complete or partial responses were observed | patients free of progression for ⩾24 weeks (advanced solid tumours; all patients): six | patients with stable disease >6 months (advanced solid tumours; all patients): 5% | reduction in the sum of target lesions diameters, single patient (advanced solid tumours; metastatic GIST, S1–120 mg): 20% | time on therapy, single patient (advanced solid tumours; metastatic GIST, S1–120 mg): 45 weeks | reduction in the size of the lesions, single patient (advanced solid tumours; [3]): 18% | time on treatment, single patient (advanced solid tumours; [3]): 49 weeks | time free of progression, single patient (advanced solid tumours; metastatic uveal melanoma, S3–35 mg): 48 weeks | inhibition of p4EBP1 in PBMC ([1]; 4 h after dosing, doses over 30 mg, almost universal): Over 50% | inhibition of p4EBP1 in PBMC ([1]; S1, 90 mg, during the 3 days on treatment): Over 50% | target inhibition (p4EBP1) in PBMC ([1]; S1, 160 mg, during the 4-days off treatment, most patients): Over 50% | preclinical toxicology findings [2]: signs of immunosuppression, renal function impairment, glucose metabolism abnormalities as well as potential for cardiac and ocular toxicities at high doses | anti tumour activity in tumour xenograft models (tumour xenograft models): anti tumour activity was documented | IC50 (mTORC2): 65 nM
